In ChEMBL document CHEMBL1159291, “Bioactive Constituents from the Flower Buds and Peduncles of Lindera megaphylla” (J Nat Prod, 1995):

Columns and labels:
[1] = test system: Platelet; experiment: Inhibition of arachidonic acid-induced rabbit platelet aggregation assessed as aggregation at 50 uM by turbidimetric method; format: functional, Oryctolagus cuniculus; set-up: scale not given: the % may be the effect or the level left
[2] = test system: Platelet; experiment: Inhibition of collagen-induced rabbit platelet aggregation assessed as aggregation at 50 uM by turbidimetric method; format: functional, Oryctolagus cuniculus; set-up: scale not given: the % may be the effect or the level left
[3] = test system: Platelet; experiment: Inhibition of arachidonic acid-induced rabbit platelet aggregation assessed as aggregation at 300 uM preincubated 3 mins before arachidonic acid challenge by turbidimetric method; format: functional, Oryctolagus cuniculus; set-up: scale not given: the % may be the effect or the level left
[4] = test system: Platelet; experiment: Inhibition of collagen-induced rabbit platelet aggregation assessed as aggregation at 300 uM preincubated 3 mins before collagen challenge by turbidimetric method; format: functional, Oryctolagus cuniculus; set-up: scale not given: the % may be the effect or the level left
[5] = test system: Aorta; experiment: Inhibition of norepinephrine-induced contraction in Wistar rat aorta assessed as contraction at 9 uM preincubated 15 mins before addition of norepinephrine relative to control; format: functional; set-up: scale not given: the % may be the effect or the level left
[6] = test system: Aorta; experiment: Inhibition of KCl-induced contraction in Wistar rat aorta assessed as contraction at 9 uM preincubated 15 mins before addition of KCl relative to control; format: functional; set-up: scale not given: the % may be the effect or the level left
[7] = Induction of rabbit platelet aggregation at 300 uM by turbidimetric method; format: cell-based, Oryctolagus cuniculus
[8] = test system: Aorta; experiment: Inhibition of norepinephrine-induced contraction in Wistar rat aorta assessed as contraction at 120 uM preincubated 15 mins before addition of norepinephrine relative to control; format: functional; set-up: scale not given: the % may be the effect or the level left
[9] = test system: Aorta; experiment: Inhibition of KCl-induced contraction in Wistar rat aorta assessed as contraction at 120 uM preincubated 15 mins before addition of KCl relative to control; format: functional; set-up: scale not given: the % may be the effect or the level left
[10] = test system: Aorta; experiment: Inhibition of norepinephrine-induced contraction in Wistar rat aorta assessed as contraction at 1 uM preincubated 15 mins before addition of norepinephrine relative to control; format: functional; set-up: scale not given: the % may be the effect or the level left
[11] = test system: Aorta; experiment: Inhibition of KCl-induced contraction in Wistar rat aorta assessed as contraction at 1 uM preincubated 15 mins before addition of KCl relative to control; format: functional; set-up: scale not given: the % may be the effect or the level left
[12] = test system: Aorta; experiment: Inhibition of norepinephrine-induced contraction in Wistar rat aorta assessed as contraction at 60 uM preincubated 15 mins before addition of norepinephrine relative to control; format: functional; set-up: scale not given: the % may be the effect or the level left
[13] = test system: Aorta; experiment: Inhibition of KCl-induced contraction in Wistar rat aorta assessed as contraction at 60 uM preincubated 15 mins before addition of KCl relative to control; format: functional; set-up: scale not given: the % may be the effect or the level left

SMILES	Activity [3]	Activity [4]	Activity [7]	Activity [8]	Activity [9]	other results
CC(=O)Oc1ccccc1C(=O)O [ASPIRIN]	–	–	–	–	–	Activity [1]: 0%; Activity [2]: 85.4%
COc1cc2c(cc1OC)-c1c3c(cc4c1[C@H](C2)N(C)CC4)OCO3 [DICENTRINE]	0%	3.1%	–	–	–	Activity [5]: 22.5%; Activity [6]: 77.5%
COc1cc2c(cc1OC)-c1c3c(cc4ccnc(c14)C2=O)OCO3 [DICENTRINONE]	–	–	Not Active	112.4%	102.1%	–
COC(=O)C1=C(C)NC(C)=C(C(=O)OC)C1c1ccccc1[N+](=O)[O-] [NIFEDIPINE]	–	–	–	–	–	Activity [10]: 96.5%; Activity [11]: 0%
COc1cc2cc3c4c(cc5c(c4c2cc1OC)OCO5)CCN3C [DEHYDRODICENTRINE]	–	–	Not Active	95.5%	108%	–
COc1ccc2c(c1OC)-c1c3c(cc4c1[C@H](C2)N(C)CC4)OCO3	73%	60.8%	–	22.9%	55.2%	Activity [12]: 68.1%; Activity [13]: 88.5%
